# Experimental data as given in PMC5622171 (Nature Communications, 2017).
# Assays:
# Experiment in all cases: KINOMEscan kinase profiling
# Type in all cases: binding
# [1] = molecular target: T1, ABL1-phosphorylated (Homo sapiens, UniProt P00519); details: read-out: %Inhibition by 10 μM SPA70
# T1 construct: purchased DiscoverX (Ambit Biosciences) KINOMEscan
# Protocol: (§1) Kinase inhibition profiling assays. The kinase inhibition profiling assay (KINOMEscan) was performed by Ambit Biosciences, now part of DiscoveryX (Fremont, CA) in accordance with the […]
# (§2) published protocol20, 21. […] If the inhibition of a kinase was greater […]
# (§3) dilutions) starting from 30 µM.
# [2] = molecular target: T2, ADCK4 (Homo sapiens, UniProt Q96D53); details: read-out: %Inhibition by 10 μM SPA70
# T2 construct: purchased DiscoverX (Ambit Biosciences) KINOMEscan
# Protocol: as §1, §2, §3
# [3] = molecular target: T3, AURKA (Homo sapiens, UniProt O14965); details: read-out: %Inhibition by 10 μM SPA70
# T3 construct: purchased DiscoverX (Ambit Biosciences) KINOMEscan
# Protocol: as §1, §2, §3
# [4] = molecular target: T4, BLK (Homo sapiens, UniProt P51451); details: read-out: %Inhibition by 10 μM SPA70
# T4 construct: purchased DiscoverX (Ambit Biosciences) KINOMEscan
# Protocol: as §1, §2, §3
# [5] = molecular target: T5, BRSK2 (Homo sapiens, UniProt Q8IWQ3); details: read-out: %Inhibition by 10 μM SPA70
# T5 construct: purchased DiscoverX (Ambit Biosciences) KINOMEscan
# Protocol: as §1, §2, §3
# [6] = molecular target: T6, CAMK2G (Homo sapiens, UniProt Q13555); details: read-out: %Inhibition by 10 μM SPA70
# T6 construct: purchased DiscoverX (Ambit Biosciences) KINOMEscan
# Protocol: as §1, §2, §3
# [7] = molecular target: T7, CDC2L5 (Homo sapiens, UniProt Q14004)
# T7 construct: purchased DiscoverX (Ambit Biosciences) KINOMEscan
# Protocol: as §1, §2, §3
# [8] = molecular target: T8, CDK9 (Homo sapiens, UniProt P50750); details: read-out: %Inhibition by 10 μM SPA70
# T8 construct: purchased DiscoverX (Ambit Biosciences) KINOMEscan
# Protocol: as §1, §2, §3
# [9] = molecular target: T9, DAPK1 (Homo sapiens, UniProt P53355); details: read-out: %Inhibition by 10 μM SPA70
# T9 construct: purchased DiscoverX (Ambit Biosciences) KINOMEscan
# Protocol: as §1, §2, §3
# [10] = molecular target: T10, DDR1 (Homo sapiens, UniProt Q08345); details: read-out: %Inhibition by 10 μM SPA70
# T10 construct: purchased DiscoverX (Ambit Biosciences) KINOMEscan
# Protocol: as §1, §2, §3
# [11] = molecular target: T11, DLK (Homo sapiens, UniProt Q12852)
# T11 construct: purchased DiscoverX (Ambit Biosciences) KINOMEscan
# Protocol: as §1, §2, §3
# [12] = molecular target: T12, EPHA6 (Homo sapiens, UniProt Q9UF33); details: read-out: %Inhibition by 10 μM SPA70
# T12 construct: purchased DiscoverX (Ambit Biosciences) KINOMEscan
# Protocol: as §1, §2, §3
# [13] = molecular target: T13, EPHA7 (Homo sapiens, UniProt Q15375); details: read-out: %Inhibition by 10 μM SPA70
# T13 construct: purchased DiscoverX (Ambit Biosciences) KINOMEscan
# Protocol: as §1, §2, §3
# [14] = molecular target: T14, EPHB6 (Homo sapiens, UniProt O15197); details: read-out: %Inhibition by 10 μM SPA70
# T14 construct: purchased DiscoverX (Ambit Biosciences) KINOMEscan
# Protocol: as §1, §2, §3
# [15] = molecular target: T15, ERBB3 (Homo sapiens, UniProt P21860); details: read-out: %Inhibition by 10 μM SPA70
# T15 construct: purchased DiscoverX (Ambit Biosciences) KINOMEscan
# Protocol: as §1, §2, §3
# [16] = molecular target: T16, ERK3 (Homo sapiens, UniProt Q16659); details: read-out: %Inhibition by 10 μM SPA70
# T16 construct: purchased DiscoverX (Ambit Biosciences) KINOMEscan
# Protocol: as §1, §2, §3
# [17] = molecular target: T17, FER (Homo sapiens, UniProt P16591); details: read-out: %Inhibition by 10 μM SPA70
# T17 construct: purchased DiscoverX (Ambit Biosciences) KINOMEscan
# Protocol: as §1, §2, §3
# [18] = molecular target: T18, HUNK (Homo sapiens, UniProt P57058); details: read-out: %Inhibition by 10 μM SPA70
# T18 construct: purchased DiscoverX (Ambit Biosciences) KINOMEscan
# Protocol: as §1, §2, §3
# [19] = molecular target: T19, IRAK1 (Homo sapiens, UniProt P51617); details: read-out: %Inhibition by 10 μM SPA70
# T19 construct: purchased DiscoverX (Ambit Biosciences) KINOMEscan
# Protocol: as §1, §2, §3
# [20] = molecular target: T20, JNK3 (Homo sapiens, UniProt P53779)
# T20 construct: purchased DiscoverX (Ambit Biosciences) KINOMEscan
# Protocol: as §1, §2, §3
# [21] = molecular target: T21, LATS2 (Homo sapiens, UniProt Q9NRM7)
# T21 construct: purchased DiscoverX (Ambit Biosciences) KINOMEscan
# Protocol: as §1, §2, §3
# [22] = molecular target: T22, LTK (Homo sapiens, UniProt P29376); details: read-out: %Inhibition by 10 μM SPA70
# T22 construct: purchased DiscoverX (Ambit Biosciences) KINOMEscan
# Protocol: as §1, §2, §3
# [23] = molecular target: T23, LYN (Homo sapiens, UniProt P07948); details: read-out: %Inhibition by 10 μM SPA70
# T23 construct: purchased DiscoverX (Ambit Biosciences) KINOMEscan
# Protocol: as §1, §2, §3
# [24] = molecular target: T24, MAP4K2 (Homo sapiens, UniProt Q12851); details: read-out: %Inhibition by 10 μM SPA70
# T24 construct: purchased DiscoverX (Ambit Biosciences) KINOMEscan
# Protocol: as §1, §2, §3
# [25] = molecular target: T25, MAPKAPK5 (Homo sapiens, UniProt Q8IW41); details: read-out: %Inhibition by 10 μM SPA70
# T25 construct: purchased DiscoverX (Ambit Biosciences) KINOMEscan
# Protocol: as §1, §2, §3
# [26] = molecular target: T26, MEK4 (Homo sapiens, UniProt P45985); details: read-out: %Inhibition by 10 μM SPA70
# T26 construct: purchased DiscoverX (Ambit Biosciences) KINOMEscan
# Protocol: as §1, §2, §3
# [27] = molecular target: T27, MKNK1 (Homo sapiens, UniProt Q9BUB5); details: read-out: %Inhibition by 10 μM SPA70
# T27 construct: purchased DiscoverX (Ambit Biosciences) KINOMEscan
# Protocol: as §1, §2, §3
# [28] = molecular target: T28, MST1R (Homo sapiens, UniProt Q04912); details: read-out: %Inhibition by 10 μM SPA70
# T28 construct: purchased DiscoverX (Ambit Biosciences) KINOMEscan
# Protocol: as §1, §2, §3
# [29] = molecular target: T29, NEK1 (Homo sapiens, UniProt Q96PY6); details: read-out: %Inhibition by 10 μM SPA70
# T29 construct: purchased DiscoverX (Ambit Biosciences) KINOMEscan
# Protocol: as §1, §2, §3
# [30] = molecular target: T30, NEK3 (Homo sapiens, UniProt P51956); details: read-out: %Inhibition by 10 μM SPA70
# T30 construct: purchased DiscoverX (Ambit Biosciences) KINOMEscan
# Protocol: as §1, §2, §3
# [31] = molecular target: T31, NEK9 (Homo sapiens, UniProt Q8TD19); details: read-out: %Inhibition by 10 μM SPA70
# T31 construct: purchased DiscoverX (Ambit Biosciences) KINOMEscan
# Protocol: as §1, §2, §3
# [32] = molecular target: T32, PAK1 (Homo sapiens, UniProt Q13153); details: read-out: %Inhibition by 10 μM SPA70
# T32 construct: purchased DiscoverX (Ambit Biosciences) KINOMEscan
# Protocol: as §1, §2, §3
# [33] = molecular target: T33, PRKD1 (Homo sapiens, UniProt Q15139); details: read-out: %Inhibition by 10 μM SPA70
# T33 construct: purchased DiscoverX (Ambit Biosciences) KINOMEscan
# Protocol: as §1, §2, §3
# [34] = molecular target: T34, SGK3 (Homo sapiens, UniProt Q96BR1); details: read-out: %Inhibition by 10 μM SPA70
# T34 construct: purchased DiscoverX (Ambit Biosciences) KINOMEscan
# Protocol: as §1, §2, §3
# [35] = molecular target: T35, SRPK3 (Homo sapiens, UniProt Q9UPE1); details: read-out: %Inhibition by 10 μM SPA70
# T35 construct: purchased DiscoverX (Ambit Biosciences) KINOMEscan
# Protocol: as §1, §2, §3
# [36] = molecular target: T36, TAK1 (Homo sapiens, UniProt O43318); details: read-out: %Inhibition by 10 μM SPA70
# T36 construct: purchased DiscoverX (Ambit Biosciences) KINOMEscan
# Protocol: as §1, §2, §3
# [37] = molecular target: T37, TBK1 (Homo sapiens, UniProt Q9UHD2); details: read-out: %Inhibition by 10 μM SPA70
# T37 construct: purchased DiscoverX (Ambit Biosciences) KINOMEscan
# Protocol: as §1, §2, §3
# [38] = molecular target: T38, TGFBR1 (Homo sapiens, UniProt P36897); details: read-out: %Inhibition by 10 μM SPA70
# T38 construct: purchased DiscoverX (Ambit Biosciences) KINOMEscan
# Protocol: as §1, §2, §3
# [39] = molecular target: T39, TIE2 (Homo sapiens, UniProt Q02763); details: read-out: %Inhibition by 10 μM SPA70
# T39 construct: purchased DiscoverX (Ambit Biosciences) KINOMEscan
# Protocol: as §1, §2, §3
# [40] = molecular target: T40, TLK2 (Homo sapiens, UniProt Q86UE8); details: read-out: %Inhibition by 10 μM SPA70
# T40 construct: purchased DiscoverX (Ambit Biosciences) KINOMEscan
# Protocol: as §1, §2, §3
# [41] = molecular target: T41, TRKA (Homo sapiens, UniProt P04629); details: read-out: %Inhibition by 10 μM SPA70
# T41 construct: purchased DiscoverX (Ambit Biosciences) KINOMEscan
# Protocol: as §1, §2, §3
# [42] = molecular target: T42, WEE2 (Homo sapiens, UniProt P0C1S8); details: read-out: %Inhibition by 10 μM SPA70
# T42 construct: purchased DiscoverX (Ambit Biosciences) KINOMEscan
# Protocol: as §1, §2, §3
# [43] = molecular target: T43, YANK2 (Homo sapiens, UniProt Q9NY57); details: read-out: %Inhibition by 10 μM SPA70
# T43 construct: purchased DiscoverX (Ambit Biosciences) KINOMEscan
# Protocol: as §1, §2, §3
# T42 sequence (P0C1S8 whole entry): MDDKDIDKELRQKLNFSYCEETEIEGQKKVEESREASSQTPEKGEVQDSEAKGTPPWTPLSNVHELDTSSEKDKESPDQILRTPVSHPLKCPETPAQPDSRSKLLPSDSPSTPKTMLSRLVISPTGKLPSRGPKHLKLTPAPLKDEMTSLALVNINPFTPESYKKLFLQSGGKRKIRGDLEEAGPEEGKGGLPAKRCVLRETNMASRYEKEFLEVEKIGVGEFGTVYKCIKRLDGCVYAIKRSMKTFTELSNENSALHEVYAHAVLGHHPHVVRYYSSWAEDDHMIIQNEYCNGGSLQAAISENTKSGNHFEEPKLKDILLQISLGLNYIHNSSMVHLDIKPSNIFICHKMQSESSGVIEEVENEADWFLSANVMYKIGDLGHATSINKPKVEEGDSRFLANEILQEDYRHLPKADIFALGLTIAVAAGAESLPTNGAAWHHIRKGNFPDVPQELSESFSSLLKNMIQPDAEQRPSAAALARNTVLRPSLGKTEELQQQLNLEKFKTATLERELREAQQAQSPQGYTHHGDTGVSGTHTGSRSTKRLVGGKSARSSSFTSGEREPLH
# T40 sequence (Q86UE8 whole entry): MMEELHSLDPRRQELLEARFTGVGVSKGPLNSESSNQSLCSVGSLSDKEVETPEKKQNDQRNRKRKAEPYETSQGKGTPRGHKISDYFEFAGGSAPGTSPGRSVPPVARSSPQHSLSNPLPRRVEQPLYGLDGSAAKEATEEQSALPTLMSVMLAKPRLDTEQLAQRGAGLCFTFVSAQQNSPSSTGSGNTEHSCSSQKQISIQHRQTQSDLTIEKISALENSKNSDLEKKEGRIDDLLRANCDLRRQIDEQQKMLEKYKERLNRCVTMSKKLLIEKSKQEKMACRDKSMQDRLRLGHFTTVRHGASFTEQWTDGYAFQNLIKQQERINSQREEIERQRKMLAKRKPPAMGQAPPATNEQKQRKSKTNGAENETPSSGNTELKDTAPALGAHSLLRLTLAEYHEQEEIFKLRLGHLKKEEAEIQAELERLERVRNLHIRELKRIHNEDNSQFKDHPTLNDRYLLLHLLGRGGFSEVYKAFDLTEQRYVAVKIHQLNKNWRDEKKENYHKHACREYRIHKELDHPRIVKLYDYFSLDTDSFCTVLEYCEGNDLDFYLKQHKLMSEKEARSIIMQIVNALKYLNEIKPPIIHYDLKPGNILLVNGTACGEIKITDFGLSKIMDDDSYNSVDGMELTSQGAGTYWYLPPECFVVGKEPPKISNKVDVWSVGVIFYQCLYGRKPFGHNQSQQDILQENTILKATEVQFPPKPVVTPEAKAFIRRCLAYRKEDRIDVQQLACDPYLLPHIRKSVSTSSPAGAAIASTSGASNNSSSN
# T39 sequence (Q02763 23-1124): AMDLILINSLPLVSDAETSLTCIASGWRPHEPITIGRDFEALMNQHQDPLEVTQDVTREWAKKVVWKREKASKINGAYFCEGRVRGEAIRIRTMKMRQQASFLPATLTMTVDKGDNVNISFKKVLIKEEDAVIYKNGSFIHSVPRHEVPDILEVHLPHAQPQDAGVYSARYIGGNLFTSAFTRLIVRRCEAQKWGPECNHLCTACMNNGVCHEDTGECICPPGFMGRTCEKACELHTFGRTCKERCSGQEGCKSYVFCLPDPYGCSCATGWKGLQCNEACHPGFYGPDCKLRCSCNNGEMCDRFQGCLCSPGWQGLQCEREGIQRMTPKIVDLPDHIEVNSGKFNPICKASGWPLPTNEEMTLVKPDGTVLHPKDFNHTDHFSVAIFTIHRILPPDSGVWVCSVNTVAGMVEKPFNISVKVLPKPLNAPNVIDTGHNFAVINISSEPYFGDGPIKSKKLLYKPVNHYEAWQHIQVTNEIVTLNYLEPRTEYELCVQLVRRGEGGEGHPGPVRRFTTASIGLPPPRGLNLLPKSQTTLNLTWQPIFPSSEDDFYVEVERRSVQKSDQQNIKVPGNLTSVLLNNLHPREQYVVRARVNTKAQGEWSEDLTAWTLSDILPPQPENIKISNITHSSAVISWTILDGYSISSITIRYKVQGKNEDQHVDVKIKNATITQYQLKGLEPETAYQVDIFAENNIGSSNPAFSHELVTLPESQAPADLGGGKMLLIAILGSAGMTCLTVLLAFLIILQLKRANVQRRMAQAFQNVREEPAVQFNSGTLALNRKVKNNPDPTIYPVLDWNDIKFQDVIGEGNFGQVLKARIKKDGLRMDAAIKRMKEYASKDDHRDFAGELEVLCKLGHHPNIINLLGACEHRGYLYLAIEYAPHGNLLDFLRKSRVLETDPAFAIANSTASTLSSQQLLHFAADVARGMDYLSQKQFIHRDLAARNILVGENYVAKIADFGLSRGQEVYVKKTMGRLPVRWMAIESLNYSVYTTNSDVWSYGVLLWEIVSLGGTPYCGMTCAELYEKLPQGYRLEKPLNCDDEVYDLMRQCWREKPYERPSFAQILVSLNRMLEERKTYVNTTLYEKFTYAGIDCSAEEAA
# T29 sequence (Q96PY6 whole entry): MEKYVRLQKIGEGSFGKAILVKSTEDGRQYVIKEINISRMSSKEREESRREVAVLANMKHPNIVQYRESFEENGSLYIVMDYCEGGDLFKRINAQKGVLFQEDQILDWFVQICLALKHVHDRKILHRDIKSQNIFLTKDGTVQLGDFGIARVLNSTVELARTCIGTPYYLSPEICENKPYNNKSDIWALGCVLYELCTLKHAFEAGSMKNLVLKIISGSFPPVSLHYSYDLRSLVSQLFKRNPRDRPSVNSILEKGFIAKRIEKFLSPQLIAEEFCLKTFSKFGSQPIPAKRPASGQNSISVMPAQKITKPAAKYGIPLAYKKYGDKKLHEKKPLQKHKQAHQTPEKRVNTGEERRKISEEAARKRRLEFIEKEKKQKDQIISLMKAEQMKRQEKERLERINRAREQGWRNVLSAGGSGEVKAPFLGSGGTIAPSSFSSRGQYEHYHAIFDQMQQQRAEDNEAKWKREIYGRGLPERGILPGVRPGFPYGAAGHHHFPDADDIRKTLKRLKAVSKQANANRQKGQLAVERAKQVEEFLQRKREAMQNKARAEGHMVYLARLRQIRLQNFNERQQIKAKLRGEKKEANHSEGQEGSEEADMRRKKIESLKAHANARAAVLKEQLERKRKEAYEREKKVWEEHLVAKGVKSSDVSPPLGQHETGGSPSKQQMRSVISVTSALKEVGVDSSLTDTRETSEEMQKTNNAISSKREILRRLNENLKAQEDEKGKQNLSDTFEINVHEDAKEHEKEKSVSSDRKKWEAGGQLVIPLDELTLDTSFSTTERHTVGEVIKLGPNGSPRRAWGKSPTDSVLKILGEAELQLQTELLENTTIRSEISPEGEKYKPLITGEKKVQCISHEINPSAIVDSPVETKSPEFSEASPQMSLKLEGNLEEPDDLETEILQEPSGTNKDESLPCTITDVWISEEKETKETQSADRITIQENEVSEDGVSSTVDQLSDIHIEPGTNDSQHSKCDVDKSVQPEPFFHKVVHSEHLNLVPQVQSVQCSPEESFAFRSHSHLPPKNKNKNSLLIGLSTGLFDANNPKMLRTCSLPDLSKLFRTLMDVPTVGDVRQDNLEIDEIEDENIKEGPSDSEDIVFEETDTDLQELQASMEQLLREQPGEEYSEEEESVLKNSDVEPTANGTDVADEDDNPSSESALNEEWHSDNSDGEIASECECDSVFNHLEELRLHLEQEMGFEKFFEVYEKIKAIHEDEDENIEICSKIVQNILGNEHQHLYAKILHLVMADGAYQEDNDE
# T36 sequence (O43318 whole entry): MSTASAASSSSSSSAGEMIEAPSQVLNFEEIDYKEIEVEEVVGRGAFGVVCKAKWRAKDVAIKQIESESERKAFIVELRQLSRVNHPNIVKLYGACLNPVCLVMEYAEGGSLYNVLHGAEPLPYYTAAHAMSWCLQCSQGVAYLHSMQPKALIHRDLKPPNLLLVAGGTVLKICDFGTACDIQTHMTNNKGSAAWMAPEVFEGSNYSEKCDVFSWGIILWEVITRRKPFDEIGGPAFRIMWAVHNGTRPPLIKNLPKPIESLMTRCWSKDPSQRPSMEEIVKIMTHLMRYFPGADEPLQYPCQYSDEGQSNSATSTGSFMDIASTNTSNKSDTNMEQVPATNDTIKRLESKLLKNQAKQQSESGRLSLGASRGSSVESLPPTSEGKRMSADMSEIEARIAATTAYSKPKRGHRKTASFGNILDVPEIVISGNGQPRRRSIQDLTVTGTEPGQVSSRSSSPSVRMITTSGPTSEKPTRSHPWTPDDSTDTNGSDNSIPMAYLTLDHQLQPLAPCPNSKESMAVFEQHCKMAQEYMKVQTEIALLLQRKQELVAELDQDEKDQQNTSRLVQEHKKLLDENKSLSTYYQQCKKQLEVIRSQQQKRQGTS
# T16 sequence (Q16659 whole entry): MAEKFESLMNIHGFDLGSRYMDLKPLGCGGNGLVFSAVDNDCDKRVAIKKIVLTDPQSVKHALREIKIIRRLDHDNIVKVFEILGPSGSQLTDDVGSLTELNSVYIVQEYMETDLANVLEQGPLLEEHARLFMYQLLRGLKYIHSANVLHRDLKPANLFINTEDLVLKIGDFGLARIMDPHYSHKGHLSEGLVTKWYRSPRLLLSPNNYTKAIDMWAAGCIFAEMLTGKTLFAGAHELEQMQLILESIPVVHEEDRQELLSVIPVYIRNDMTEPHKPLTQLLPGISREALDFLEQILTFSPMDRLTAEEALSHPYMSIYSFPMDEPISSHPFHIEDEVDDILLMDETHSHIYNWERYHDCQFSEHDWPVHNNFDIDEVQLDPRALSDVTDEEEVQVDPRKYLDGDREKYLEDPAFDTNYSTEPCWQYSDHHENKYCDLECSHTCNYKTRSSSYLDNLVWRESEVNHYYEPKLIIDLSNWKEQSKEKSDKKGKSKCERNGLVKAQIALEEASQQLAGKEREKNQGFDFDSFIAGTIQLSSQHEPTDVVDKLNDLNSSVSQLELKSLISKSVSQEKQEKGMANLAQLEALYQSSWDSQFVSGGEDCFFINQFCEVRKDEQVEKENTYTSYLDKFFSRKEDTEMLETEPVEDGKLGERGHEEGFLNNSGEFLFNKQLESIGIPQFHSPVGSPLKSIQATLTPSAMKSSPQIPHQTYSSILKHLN
compound,measurement,setting,value
COc1ccc(OC)c(-n2nnc(S(=O)(=O)c3ccc(C(C)(C)C)cc3)c2C)c1 [SPA70],inhibition at 10 µM,[1],19%
same,inhibition at 10 µM,[2],16%
same,inhibition at 10 µM,[3],0%
same,inhibition at 10 µM,[4],11%
same,inhibition at 10 µM,[5],0%
same,inhibition at 10 µM,[6],1%
same,%Inhibition by 10 μM SPA70,[7],0%
same,inhibition at 10 µM,[8],0%
same,inhibition at 10 µM,[9],10%
same,inhibition at 10 µM,[10],0%
same,%Inhibition by 10 μM SPA70,[11],4%
same,inhibition at 10 µM,[12],0%
same,inhibition at 10 µM,[13],0%
same,inhibition at 10 µM,[14],0%
same,inhibition at 10 µM,[15],42%
same,inhibition at 10 µM,[16],11%
same,inhibition at 10 µM,[17],19%
same,inhibition at 10 µM,[18],15%
same,inhibition at 10 µM,[19],0%
same,%Inhibition by 10 μM SPA70,[20],9%
same,%Inhibition by 10 μM SPA70,[21],0%
same,inhibition at 10 µM,[22],6%
same,inhibition at 10 µM,[23],0%
same,inhibition at 10 µM,[24],0%
same,inhibition at 10 µM,[25],12%
same,inhibition at 10 µM,[26],0%
same,inhibition at 10 µM,[27],44%
same,inhibition at 10 µM,[28],3%
same,inhibition at 10 µM,[29],0%
same,inhibition at 10 µM,[30],0%
same,inhibition at 10 µM,[31],0%
same,inhibition at 10 µM,[32],0%
same,inhibition at 10 µM,[33],0%
same,inhibition at 10 µM,[34],0%
same,inhibition at 10 µM,[35],0%
same,inhibition at 10 µM,[36],0%
same,inhibition at 10 µM,[37],0%
same,inhibition at 10 µM,[38],20%
same,inhibition at 10 µM,[39],0%
same,inhibition at 10 µM,[40],0%
same,inhibition at 10 µM,[41],0%
same,inhibition at 10 µM,[42],1%
same,inhibition at 10 µM,[43],0%
